Reference: PMC4833640 (Journal of Medicinal Chemistry, 2016)

Assay: physchem
Settings: measured pKa values

O=c1c(O)c(NCc2ccccc2)c1=O [Compound 31, 3-(Benzylamino)-4-hydroxycyclobut-3-ene-1,2-dione] and O=c1c(O)c(Cc2ccccc2)c1=O [Compound 30, 3-Benzyl-4-hydroxycyclobut-3-ene-1,2-dione] cannot be ordered by pKa: less than 4 for the first, less than 4 for the second.

CC(=O)NOCCc1ccccc1 [Compound 5, N-Phenethoxyacetamide] and CONC(=O)CCc1ccccc1 [Compound 4, N-Methoxy-3-phenylpropanamide] cannot be ordered by pKa: greater than 8 for the first, greater than 8 for the second.

O=C(CCc1ccccc1)NO [Compound 2, N-(Hydroxy)-3-phenylpropanamide] and CC(=O)N(O)CCc1ccccc1 [Compound 3, N-Hydroxy-N-phenethylacetamide] cannot be ordered by pKa: greater than 8 for the first, greater than 8 for the second.

CS(=O)(=O)NCCCc1ccccc1 [Compound 11, N-(3-Phenylpropyl)methanesulfonamide] and NS(=O)(=O)CCc1ccccc1 [Compound 10, 2-Phenylethane-1-sulfonamide] cannot be ordered by pKa: greater than 8 for the first, greater than 8 for the second.

Going from S=c1[nH]c(CCc2ccccc2)no1 [Compound 22, 3-Phenethyl-1,2,4-oxadiazole-5(4H)-thione] to CC(=O)NC(=O)NCc1ccccc1 [Compound 15, N-(Benzylcarbamoyl)acetamide], the pKa rises from less than 4 to greater than 8.

Assay: Colorimetric hydrogen-bond assay with pyrazinone sensor
Format: physicochemical
Settings: blue-shift of λmax of the sensor, compared with carboxylic acid 1

With c1ccc(CCc2nnn[nH]2)cc1 [Compound 16, 5-Phenethyl-1H-tetrazole] the “hydrogen-bond (HB) interaction with pyrazinone sensor” value was “significantly stronger HB interactions than the corresponding carboxylic acid”.

Assay: not given
Settings: 24 h incubation, aqueous buffer pH 7.4

In the case of Oc1ccccc1SCc1ccccc1 [Compound 34, 2-(Benzylthio)phenol], the “detection after incubation in aqueous buffer (stability)” value is reported as “not detected after the 24 h incubation in aqueous buffer”.

Assay: not given
Settings: reason why data were considered unreliable

For Oc1c(F)ccc(Cc2ccccc2)c1F [Compound 33, 3-Benzyl-2,6-difluorophenol], the “PAMPA assay observation on the donor plate” value was “compound precipitation”.
In the case of Oc1c(F)cc(Cc2ccccc2)cc1F [Compound 32, 4-Benzyl-2,6-difluorophenol], the “PAMPA assay observation on the donor plate” value is reported as “high nonspecific binding”.
